Each structure is given as a SMILES string.

Series [1] can be described thus: In vitro release profile of cloxacillin benzathine by direct dialysis in PBS:PEG and PBS:milk. It counts as physicochemical. To be noted: 37° C.; PBS:PEG vs PBS:milk. The protocol: The evaluation of the release profile in vitro of the cloxacillin benzathine from the nanocarriers of reservoir type was performed according to the direct dialysis technique in two different release environments. Dialysis bags were inserted in containers containing a buffered saline solution and 1% polyethylene glycol 300 (PBS:PEG) or a buffered saline containing 1% of skimmed milk (PBS:milk) under 37° C. with moderate stirring. […] In pre-defined lapses, aliquots were removed and the environment was re-added with the same volume withdrawn. Right after, the samples were prepared and the supernatant dosed.

Series [2] in a line: Degradation of the drug by HPLC during the dissolution test at pH 7.4. It counts as physicochemical. Conditions: until 540 minutes of test. How it is done: In this work, the dissolution was conducted in pH 7.4 for it is about the pH of the milk of animals with mastitis (Gruet et al., 2001).

Regarding `Cc1onc(-c2ccccc2Cl)c1C(=O)N[C@@H]1C(=O)N2[C@@H]1SC(C)(C)[C@@H]2C(=O)O` [CLOXB, cloxacillin benzathine], in series [1], the “release depending on the environment (1% PEG vs 1% milk), in words” value is “release was bigger in environment containing 1% of PEG”. Also, the “degradation of the drug” value in series [2] is given as “no degradation”.

(Values after US10098840B2, “Nanoparticulate composition containing antibiotics for intramammary administration in animals” (priority 2010, dated 2018).)
